According to US10828301B2, “2,4-pyrimidinediamine compounds and their uses” (Rigel Pharmaceuticals, Inc, priority 2002, dated 2020):
Where two headings read alike, the source gives them in different places.

Columns and labels:
Assay type in all cases: cell-based
[1] = system: cultured human mast cells (CHMC); assay: CHMC low cell density IgE activation: tryptase and LTC4 assays; details: Homo sapiens, Mast cell, Low Density CHMC, anti-IgE activation
In short: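 Cultured human mast cells at low density (1000-1500 per well) rested 1 h at 37° C, then stimulated with anti-IgE for 30 min at 37° C. Supernatant tryptase measured with fluorogenic substrate (30 min, room temperature); LTC4 quantified by ELISA on diluted supernatant.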

[2] = system: bone marrow derived mast cells (BMMC); assay: BMMC high cell density IgE activation: degranulation (hexosiminidase, histamine), leukotriene (LTC4) and cytokine (TNFalpha, IL-6) assays; details: Mus musculus, anti-IgE activation
Protocol: After sensitizing, cells are counted, pelleted (1000 rpm, 5-10 minutes), and resuspended at 1-3×10^6 cells/ml in MT buffer. Add 100 ul of cell suspension to each well and 100 ul of compound dilutions. The final vehicle concentration is 0.5% DMSO. Incubate at 37° C. (5% CO2) for 1 hour. After 1 hour of compound treatment, stimulate cells with 6× stimulus (60 ng/ml DNP-BSA). Mix wells with the cells and allow plates to incubate at 37° C. (5% CO2) for one hour. After 1 hour incubation, pellet cells (10 minutes, 1000 RPM) and collect 200 ul per well of the supernatant, being careful not to disturb pellet, and transfer to a clean tube or 96-well plate. Place the supernatant plate on ice. During the 4-5 hour step (see next) perform the hexosiminidase assay. Resuspend cell pellet in 240 ul WEI-conditioned media containing 0.5% DMSO and corresponding concentration of compound. Incubate BMMC cells for 4-5 hours at 37° C. (5% CO2). After incubation, pellet cells (1000 RPM, 10 minutes) and collect 225 ul per well and place in −80° C. until ready to perform ELISAS. ELISAS are performed on appropriately diluted samples (determined empirically for each donor cell population so that the sample measurement falls within the standard curve) following the supplier's instructions.
Add 50 uL of BMMC cell supernatant (see above) to the hexoseaminidase substrate, place at 37° C. for 30 minutes and read the plate at 5, 10, 15, and 30 minutes on a spectrophotometer.

[3] = system: cultured human mast cells (CHMC); assay: CHMC low cell density ionomycin activation: tryptase assay; details: Homo sapiens, Mast cell, Low Density CHMC, ionomycin activation, tryptase readout; read-out: CHMC Ionomycin Tryptase
[4] = system: cultured human mast cells (CHMC); assay: CHMC high cell density IgE activation: degranulation (hexos, tryptase, histamine), leukotriene (LTC4) and cytokine (TNFalpha, IL-13) assays; details: anti-IgE activation
Protocol: After sensitizing, cells are counted, pelleted (1000 rpm, 5-10 minutes), and resuspended at 1-2×10^6 cells/ml in MT buffer. Add 100 ul of cell suspension to each well and 100 ul of compound dilutions. The final vehicle concentration is 0.5% DMSO. Incubate at 37° C. (5% CO2) for 1 hour. After 1 hour of compound treatment, stimulate cells with 6× anti-IgE. Mix wells with the cells and allow plates to incubate at 37° C. (5% CO2) for one hour. After 1 hour incubation, pellet cells (10 minutes, 1000 RPM) and collect 200 ul per well of the supernatant, being careful not to disturb pellet. Place the supernatant plate on ice. During the 7-hour step (see next) perform tryptase assay on supernatant that had been diluted 1:500. Resuspend cell pellet in 240 ul of CM media containing 0.5% DMSO and corresponding concentration of compound. Incubate CHMC cells for 7 hours at 37° C. (5% CO2). After incubation, pellet cells (1000 RPM, 10 minutes) and collect 225 ul per well and place in −80° C. until ready to perform ELISAS. ELISAS are performed on appropriately diluted samples (determined empirically for each donor cell population so that the sample measurement falls within the standard curve) following the supplier's instructions.

[5] = tryptase readout, read-out: CHMC anti-IgE Tryptase
[6] = hexosaminidase release, read-out: BMMC anti-IgE hexos IC50
[7] = hexosaminidase readout, read-out: CHMC anti-IgE Hexos.
[8] = IL-6 release, read-out: BMMC anti-IgE IL-6 IC50
[9] = LTC4 release, read-out: BMMC anti-IgE LTC4 IC50
[10] = TNF-alpha release, read-out: BMMC anti-IgE TNF-alpha IC50
[11] = histamine release, read-out: BMMC anti-IgE histamine IC50
[12] = LTC4, read-out: CHMC high density LTC4
[13] = TNF-alpha, read-out: CHMC high density TNF-alpha
[14] = hexosaminidase release, read-out: CHMC high density hexos
[15] = histamine release, read-out: CHMC high density histamine
[16] = tryptase release, read-out: CHMC high density tryptase
[17] = IL-13, read-out: CHMC high density IL-13

Row | IC50 [1, 5] [nM] | IC50 [2, 6] [nM] | IC50 [3] [µM] | IC50 [1, 7] [nM] | IC50 [2, 8] [nM] | IC50 [2, 9] [nM] | IC50 [2, 10] [nM] | IC50 [2, 11] [nM] | IC50 ([1]; LTC4 readout, read-out: CHMC anti-IgE LTC4) [nM] | IC50 [4, 12] [nM] | IC50 [4, 13] [nM] | IC50 [4, 14] [nM] | IC50 [4, 15] [nM] | IC50 [4, 16] [nM] | IC50 [4, 17] [nM] | SMILES
1 | 1210 | 1900 | 6.2 | – | – | – | – | – | – | – | – | – | – | – | – | CCc1ccc(Nc2ncc(F)c(Nc3ccc4c(c3)OCCO4)n2)cc1 [Compound R926237, N4-(3,4-Ethylenedioxyphenyl)-N2-(4-ethylphenyl)-5-fluoro-2,4-pyrimidinediamine]
2 | – | > 10000 | – | > 10000 | – | – | – | – | – | – | – | – | – | – | – | CCOC(=O)c1cccc(Nc2ncc(F)c(Nc3cccc(C(=O)OCC)c3)n2)c1 [Compound R926228, N2,N4-Bis(3-ethoxycarbonylphenyl)-5-fluoro-2,4-pyrimidinediamine]
3 | 202 | < 220 | > 10 | – | < 220 | 876 | 484 | 317 | – | – | – | – | – | – | – | CC(C)Oc1ccc(Nc2nc(Nc3ccc(OCCO)cc3)ncc2F)cc1 [Compound R935160, 5-Fluoro-N2-[4-(2-hydroxyethoxy)phenyl]-N4-(4-isopropoxyphenyl)-2,4-pyrimidinediamine]
4 | – | > 10000 | – | > 10000 | – | – | – | – | – | – | – | – | – | – | – | CCc1ccc(Nc2ncc(F)c(Nc3ccc(CC)cc3)n2)cc1 [Compound R926234, N2,N4-Bis(4-ethylphenyl)-5-fluoro-2,4-pyrimidinediamine]
5 | – | < 220 | – | – | < 220 | 521 | 432 | < 220 | – | – | – | – | – | – | – | O=C1COc2ccc(Nc3ncc(F)c(Nc4cccc(O)c4)n3)cc2N1 [Compound R909238, N2-(1,4-Benzoxazin-3-on-6-yl)-5-fluoro-N4-(3-hydroxyphenyl)-2,4-pyrimidinediamine]
6 | 214 | < 56 | > 10 | – | < 56 | 390 | 88 | < 56 | – | – | – | – | – | – | – | OCc1cc2cc(Nc3ncc(F)c(Nc4cccc(O)c4)n3)ccc2o1 [Compound R926707, 5-Fluoro-N2-[2-(hydroxymethyl)benzofuran-5-yl]-N4-(3-hydroxyphenyl)-2,4-pyrimidinediamine]
7 | 313 | – | > 10 | – | – | – | – | – | 78 | 326 | > 10000 | 640 | > 10000 | > 2000 | – | CNC(=O)c1cc2cc(Nc3ncc(F)c(Nc4ccc(C(C)(C)C)cc4)n3)ccc2o1 [Compound R926494, N4-(4-tert-Butylphenyl)-5-fluoro-N2-[2-(N-methylamino)carbonylbenzofuran-5-yl]-2,4-pyrimidinediamine]
8 | 209 | < 220 | > 10 | – | < 220 | 995 | 614 | 515 | – | – | – | – | – | – | – | O=C(NCCO)c1cc2cc(Nc3ncc(F)c(Nc4ccc5c(c4)OCCO5)n3)ccc2o1 [Compound R926498, N4-(3,4-Ethylenedioxyphenyl)-5-fluoro-N2-[2-(N-2-hydroxyethylamino)carbonylbenzofuran-5-yl]-2,4-pyrimidinediamine]
9 | 310 | – | > 10 | – | – | – | – | – | – | 201 | 1060 | 567 | 627 | 618 | 798 | Nc1cc(Cl)cc(Nc2ncc(F)c(Nc3cc(N)cc(Cl)c3)n2)c1 [Compound R950141, N2,N4-Bis(3-amino-5-chlorophenyl)-5-fluoro-2,4-pyrimidinediamine]
10 | 268 | – | 7.3 | – | – | – | – | – | – | < 1100 | 3190 | < 1100 | 1180 | < 1100 | 3010 | Cc1cc(Nc2ncc(F)c(Nc3cc(C)c(O)c(Cl)c3)n2)cc(Cl)c1O [Compound R940216, N2,N4-Bis-(3-chloro-4-hydroxy-5-methylphenyl)-5-fluoro-2,4-pyrimidinediamine]
11 | 228 | – | > 10 | – | – | – | – | – | – | – | > 10000 | > 10000 | – | > 10000 | 6440 | COC(=O)c1cc2cc(Nc3ncc(F)c(Nc4cccc(O)c4)n3)ccc2o1 [Compound R926614, 5-Fluoro-N4-(3-hydroxyphenyl)-N2-(2-methoxycarbonylbenzofuran-5-yl)-2,4-pyrimidinediamine]
